Results taken from ChEMBL document CHEMBL3046322, “Insect growth regulatory effects by diterpenes from Calceolaria talcana Grau & Ehrhart (Calceolariaceae: Scrophulariaceae) against Spodoptera frugiperda and Drosophila melanogaster” (2013).
Converted amounts (≈) assume the structure as drawn. The source made the active and inactive calls. The calls are words filed in the database; no cut-off is given here.

Tests used:
Spodoptera frugiperda [1] = assay: Growth inhibitory activity against first-instar larval stage of Spodoptera frugiperda (fall armyworm) fed with compound incorporated diet assessed as weight gained at 35 ug/ml after 7 days (reference value: 100%); assay type: functional; set-up: scale not given: the % may be the effect or the level left
Spodoptera frugiperda [2] = assay: Growth inhibitory activity against Spodoptera frugiperda (fall armyworm) larvae fed with compound containing diet assessed as reduction in adult emergence at 20 ug/ml; assay type: functional
Spodoptera frugiperda [3] = assay: Growth inhibitory activity against first-instar larval stage of Spodoptera frugiperda (fall armyworm) fed with compound incorporated diet assessed as weight gained at 50 ug/ml after 7 days (reference value: 100%); assay type: functional; set-up: scale not given: the % may be the effect or the level left
Spodoptera frugiperda [4] = assay: Growth inhibitory activity against first-instar larval stage of Spodoptera frugiperda (fall armyworm) fed with compound incorporated diet assessed as length gained at 10 ug/ml after 21 days (reference value: 100%); assay type: functional
Spodoptera frugiperda [5] = assay: Growth inhibitory activity against first-instar larval stage of Spodoptera frugiperda (fall armyworm) fed with compound incorporated diet assessed as length gained at 50 ug/ml after 21 days (reference value: 100%); assay type: functional
Spodoptera frugiperda [6] = assay: Growth inhibitory activity against first-instar larval stage of Spodoptera frugiperda (fall armyworm) fed with compound incorporated diet assessed as length gained at 5 ug/ml after 21 days (reference value: 100%); assay type: functional
Spodoptera frugiperda [7] = assay: Growth inhibitory activity against first-instar larval stage of Spodoptera frugiperda (fall armyworm) fed with compound incorporated diet assessed as length gained at 35 ug/ml after 7 days (reference value: 100%); assay type: functional
Spodoptera frugiperda [8] = assay: Insecticidal activity against first-instar larval stage of Spodoptera frugiperda (fall armyworm) fed with compound incorporated diet assessed as mortality at 5 ug/ml after 21 days (reference value: 5.6%); assay type: functional; details: 504 h
Spodoptera frugiperda [9] = assay: Growth inhibitory activity against first-instar larval stage of Spodoptera frugiperda (fall armyworm) fed with compound incorporated diet assessed as weight gained at 20 ug/ml after 7 days (reference value: 100%); assay type: functional; set-up: scale not given: the % may be the effect or the level left
Spodoptera frugiperda [10] = assay: Insecticidal activity against first-instar larval stage of Spodoptera frugiperda (fall armyworm) fed with compound incorporated diet assessed as mortality at 20 ug/ml after 21 days (reference value: 5.6%); assay type: functional; details: 504 h
Spodoptera frugiperda [11] = assay: Insecticidal activity against first-instar larval stage of Spodoptera frugiperda (fall armyworm) fed with compound incorporated diet assessed as mortality at 10 ug/ml after 21 days (reference value: 5.6%); assay type: functional; details: 504 h
Drosophila melanogaster [12] = assay: Insecticidal activity against Drosophila melanogaster larvae fed with compound incorporated diet assessed as mortality at 10 ug/ml after 72 hr by not choice test (reference value: 0%); assay type: functional
Spodoptera frugiperda [13] = assay: Insecticidal activity against first-instar larval stage of Spodoptera frugiperda (fall armyworm) fed with compound incorporated diet assessed as mortality at 10 ug/ml after 7 days (reference value: 5.6%); assay type: functional; details: 168 h
Drosophila melanogaster [14] = assay: Insecticidal activity against Drosophila melanogaster larvae fed with compound incorporated diet assessed as mortality after 72 hr by not choice test; assay type: functional
Spodoptera frugiperda [15] = assay: Growth inhibitory activity against Spodoptera frugiperda (fall armyworm) larvae fed with compound containing diet assessed as reduction in pupae weight at 25 ug/ml; assay type: functional, organism-based
Spodoptera frugiperda [16] = assay: Growth inhibitory activity against first-instar larval stage of Spodoptera frugiperda (fall armyworm) fed with compound incorporated diet assessed as weight gained at 10 ug/ml after 21 days (reference value: 100%); assay type: functional
Spodoptera frugiperda [17] = assay: Insecticidal activity against first-instar larval stage of Spodoptera frugiperda (fall armyworm) fed with compound incorporated diet assessed as mortality at 5 ug/ml after 7 days (reference value: 5.6%); assay type: functional; details: 168 h
Spodoptera frugiperda [18] = assay: Growth inhibitory activity against first-instar larval stage of Spodoptera frugiperda (fall armyworm) fed with compound incorporated diet assessed as length gained at 20 ug/ml after 7 days (reference value: 100%); assay type: functional
Spodoptera frugiperda [19] = assay: Growth inhibitory activity against first-instar larval stage of Spodoptera frugiperda (fall armyworm) fed with compound incorporated diet assessed as weight gained at 5 ug/ml after 21 days (reference value: 100%); assay type: functional
Spodoptera frugiperda [20] = assay: Growth inhibitory activity against Spodoptera frugiperda (fall armyworm) larvae fed with compound containing diet assessed as growth index at 35 ug/ml (reference value: 0.95 +/-0.02 no_unit); assay type: functional
Spodoptera frugiperda [21] = assay: Growth inhibitory activity against Spodoptera frugiperda (fall armyworm) larvae fed with compound containing diet assessed as growth index at 10 ug/ml (reference value: 0.95 +/-0.02 no_unit); assay type: functional
Spodoptera frugiperda [22] = assay: Insecticidal activity against first-instar larval stage of Spodoptera frugiperda (fall armyworm) fed with compound incorporated diet assessed as mortality at 35 ug/ml after 21 days (reference value: 5.6%); assay type: functional; details: 504 h
Spodoptera frugiperda [23] = assay: Growth inhibitory activity against po dosed Spodoptera frugiperda (fall armyworm) larvae assessed as promotion of apolysis to fifth instar with ecdysis inhibition at 5 to 20 ug/ml; assay type: functional, organism-based
Spodoptera frugiperda [24] = assay: Growth inhibitory activity against Spodoptera frugiperda (fall armyworm) larvae fed with compound containing diet assessed as relative growth index at 5 ug/ml (reference value: 1.0 no_unit); assay type: functional
Spodoptera frugiperda [25] = assay: Growth inhibitory activity against Spodoptera frugiperda (fall armyworm) larvae fed with compound containing diet assessed as growth index at 5 ug/ml (reference value: 0.95 +/-0.02 no_unit); assay type: functional
Spodoptera frugiperda [26] = assay: Growth inhibitory activity against first-instar larval stage of Spodoptera frugiperda (fall armyworm) fed with compound incorporated diet assessed as weight gained at 35 ug/ml after 21 days (reference value: 100%); assay type: functional
Spodoptera frugiperda [27] = assay: Insecticidal activity against first-instar larval stage of Spodoptera frugiperda (fall armyworm) fed with compound incorporated diet assessed as mortality at 50 ug/ml after 7 days (reference value: 5.6%); assay type: functional; details: 168 h
Spodoptera frugiperda [28] = assay: Growth inhibitory activity against first-instar larval stage of Spodoptera frugiperda (fall armyworm) fed with compound incorporated diet assessed as weight gained at 10 ug/ml after 7 days (reference value: 100%); assay type: functional; set-up: scale not given: the % may be the effect or the level left
Spodoptera frugiperda [29] = assay: Growth inhibitory activity against first-instar larval stage of Spodoptera frugiperda (fall armyworm) fed with compound incorporated diet assessed as weight gained at 50 ug/ml after 21 days (reference value: 100%); assay type: functional
Drosophila melanogaster [30] = assay: Insecticidal activity against Drosophila melanogaster larvae fed with compound incorporated diet assessed as mortality at 20 ug/ml after 72 hr by not choice test (reference value: 0%); assay type: functional
Spodoptera frugiperda [31] = assay: Growth inhibitory activity against first-instar larval stage of Spodoptera frugiperda (fall armyworm) fed with compound incorporated diet assessed as weight gained at 20 ug/ml after 21 days (reference value: 100%); assay type: functional
Spodoptera frugiperda [32] = assay: Growth inhibitory activity against first-instar larval stage of Spodoptera frugiperda (fall armyworm) fed with compound incorporated diet assessed as length gained at 20 ug/ml after 21 days (reference value: 100%); assay type: functional; set-up: scale not given: the % may be the effect or the level left
Spodoptera frugiperda [33] = assay: Insecticidal activity against first-instar larval stage of Spodoptera frugiperda (fall armyworm) fed with compound incorporated diet assessed as mortality at 20 ug/ml after 7 days (reference value: 5.6%); assay type: functional; details: 168 h
Spodoptera frugiperda [34] = assay: Growth inhibitory activity against first-instar larval stage of Spodoptera frugiperda (fall armyworm) fed with compound incorporated diet assessed as length gained at 50 ug/ml after 7 days (reference value: 100%); assay type: functional
Spodoptera frugiperda [35] = assay: Growth inhibitory activity against Spodoptera frugiperda (fall armyworm) larvae fed with compound containing diet assessed as reduction in survival pupation at >10 ug/ml; assay type: functional
Spodoptera frugiperda [36] = assay: Insecticidal activity against first-instar larval stage of Spodoptera frugiperda (fall armyworm) fed with compound incorporated diet assessed as mortality at 40 ug/ml after 7 days; assay type: functional, organism-based
Spodoptera frugiperda [37] = assay: Insecticidal activity against first-instar larval stage of Spodoptera frugiperda (fall armyworm) fed with compound incorporated diet assessed as mortality at 50 to 100 ug/ml after 7 days; assay type: functional

| Compound | Activity (Spodoptera frugiperda [1]) [%] | inhibition at 20 µg/mL (Spodoptera frugiperda [2]) [%] | Activity (Spodoptera frugiperda [3]) [%] | Length gained relative to control (Spodoptera frugiperda [4]) [%] | Length gained (% of control) (Spodoptera frugiperda [5]) [%] | Length gained (% of control) (Spodoptera frugiperda [6]) [%] | Length gained relative to control (Spodoptera frugiperda [7]) [%] | mortality at 5 µg/mL (Spodoptera frugiperda [8]) [%] | Activity (Spodoptera frugiperda [9]) [%] | mortality at 20 µg/mL (Spodoptera frugiperda [10]) [%] | mortality at 10 µg/mL (Spodoptera frugiperda [11]) [%] | mortality at 10 µg/mL (Drosophila melanogaster [12]) [%] | mortality at 10 µg/mL (Spodoptera frugiperda [13]) [%] | LC50 (Drosophila melanogaster [14]) [µg/mL] | inhibition (Spodoptera frugiperda [15]) | Weight gain (% of control) (Spodoptera frugiperda [16]) [%] | mortality at 5 µg/mL (Spodoptera frugiperda [17]) [%] | Length gained relative to control (Spodoptera frugiperda [18]) [%] | Larval weight gain relative to control (Spodoptera frugiperda [19]) [%] | Growth_index (Spodoptera frugiperda [21]) | also measured |
| --- | --- | --- | --- | --- | --- | --- | --- | --- | --- | --- | --- | --- | --- | --- | --- | --- | --- | --- | --- | --- | --- |
| CC(C)c1ccc2c(c1)CC[C@H]1[C@](C)(CO)CCC[C@]21C [POMIFERIN A] | 42.3 | 0 | 41.3 | 59.4 | 37.4 | 85.6 | 42.5 | 4.16 | 56.2 | 15 | 5.6 | 13.3 | 41.7 | 16.1 (≈ 56.2 µM) | Active | 65.8 | 33.3 | 64.2 | 93.5 | 0.93 | Growth_index (Spodoptera frugiperda [20]): 0.71; mortality at 35 µg/mL (Spodoptera frugiperda [22]): 25%; Activity (Spodoptera frugiperda [23]): Active; Growth_index (Spodoptera frugiperda [24]): 0.99; Growth_index (Spodoptera frugiperda [25]): 0.97; Weight gain relative to control (Spodoptera frugiperda [26]): 38.2%; mortality at 50 µg/mL (Spodoptera frugiperda [27]): 83.3%; Activity (Spodoptera frugiperda [28]): 81.3%; Weight gain relative to control (Spodoptera frugiperda [29]): 33.6%; mortality at 20 µg/mL (Drosophila melanogaster [30]): 67%; Weight gain relative to control (Spodoptera frugiperda [31]): 50.6%; Activity (Spodoptera frugiperda [32]): 41.8%; mortality at 20 µg/mL (Spodoptera frugiperda [33]): 46.8%; Length gain relative to control (Spodoptera frugiperda [34]): 33.3% |
| C=C[C@]1(C)CC[C@H]2C(=CC[C@@H]3[C@](C)(CO)CC[C@@H]4C[C@@]432)C1 | 1.4 | 0 | 0 | 30.8 | 0 | 55 | 7.5 | 55.8 | 6.8 | 100 | 68.6 | 30 | 37.3 | 9.2 (≈ 32.1 µM) | Active | 10.6 | 20.8 | 18.3 | 20.1 | 0.21 | inhibition (INH) (Spodoptera frugiperda [35]): 0%; Growth_index (Spodoptera frugiperda [20]): 0.09; mortality at 35 µg/mL (Spodoptera frugiperda [22]): 100%; Activity (Spodoptera frugiperda [23]): Active; Growth_index (Spodoptera frugiperda [24]): 0.45; Growth_index (Spodoptera frugiperda [25]): 0.41; Weight gain relative to control (Spodoptera frugiperda [26]): 0%; mortality (Spodoptera frugiperda [36]): Active; mortality at 50 µg/mL (Spodoptera frugiperda [27]): 100%; Activity (Spodoptera frugiperda [28]): 17.1%; Weight gain relative to control (Spodoptera frugiperda [29]): 0%; mortality at 20 µg/mL (Drosophila melanogaster [30]): 98%; Weight gain relative to control (Spodoptera frugiperda [31]): 0%; Activity (Spodoptera frugiperda [32]): 0%; mortality at 20 µg/mL (Spodoptera frugiperda [33]): 55.8%; mortality (Spodoptera frugiperda [37]): 100%; Length gain relative to control (Spodoptera frugiperda [34]): 0% |
| C[C@H]1[C@H](C)CC[C@]2(C(=O)O)CC[C@]3(C)C(=CC[C@@H]4[C@@]5(C)CC[C@H](O)C(C)(C)[C@@H]5CC[C@]43C)[C@H]12 [URSOLIC ACID] | 49.2 | 0 | 32.5 | 48.4 | 0 | 57.2 | 6.7 | 79.1 | 52.5 | 91.7 | 81.3 | 7 | 16.7 | 41.3 (≈ 90.4 µM) | Active | 47.4 | 4.2 | 8.9 | 51.9 | 0.69 | inhibition (INH) (Spodoptera frugiperda [35]): 0%; mortality at 35 µg/mL (Spodoptera frugiperda [22]): 100%; Activity (Spodoptera frugiperda [23]): Active; Growth_index (Spodoptera frugiperda [24]): 0.98; Growth_index (Spodoptera frugiperda [25]): 0.93; Weight gain relative to control (Spodoptera frugiperda [26]): 0%; mortality (Spodoptera frugiperda [36]): Active; mortality at 50 µg/mL (Spodoptera frugiperda [27]): 79.1%; Activity (Spodoptera frugiperda [28]): 53.3%; Weight gain relative to control (Spodoptera frugiperda [29]): 0%; mortality at 20 µg/mL (Drosophila melanogaster [30]): 15.1%; Weight gain relative to control (Spodoptera frugiperda [31]): 30.1%; Activity (Spodoptera frugiperda [32]): 28.6%; mortality at 20 µg/mL (Spodoptera frugiperda [33]): 29.2%; mortality (Spodoptera frugiperda [37]): 100%; Length gain relative to control (Spodoptera frugiperda [34]): 3.4% |
